Results as given in ChEMBL document CHEMBL5500323, “Plasmodium falciparum topoisomerases: Emerging targets for anti-malarial therapy” (Eur J Med Chem, 2024).
One block for each compound: values may come before it.

What was measured:
[1] = Inhibition of Plasmodium falciparum 3D7 Gyrase B
[2] = Inhibition of DNA topoisomerase II (unknown origin); set-up: species or system Homo sapiens
[3] = Inhibition of Plasmodium falciparum NF54 Gyrase B
[4] = Inhibition of recombinant Plasmodium falciparum strain 3D7 Gyrase B expressed in Escherichia coli BL21 (DE3)
[5] = Inhibition of C-terminal 6His-tagged Plasmodium falciparum Gyrase B expressed in Escherichia coli
DNA topoisomerase 2 = biological target: T1, DNA topoisomerase 2 (Plasmodium falciparum K1, UniProt P41001); experiment: Inhibition of Plasmodium falciparum isolate K1 DNA topoisomerase 2
T1 sequence (P41001 whole entry): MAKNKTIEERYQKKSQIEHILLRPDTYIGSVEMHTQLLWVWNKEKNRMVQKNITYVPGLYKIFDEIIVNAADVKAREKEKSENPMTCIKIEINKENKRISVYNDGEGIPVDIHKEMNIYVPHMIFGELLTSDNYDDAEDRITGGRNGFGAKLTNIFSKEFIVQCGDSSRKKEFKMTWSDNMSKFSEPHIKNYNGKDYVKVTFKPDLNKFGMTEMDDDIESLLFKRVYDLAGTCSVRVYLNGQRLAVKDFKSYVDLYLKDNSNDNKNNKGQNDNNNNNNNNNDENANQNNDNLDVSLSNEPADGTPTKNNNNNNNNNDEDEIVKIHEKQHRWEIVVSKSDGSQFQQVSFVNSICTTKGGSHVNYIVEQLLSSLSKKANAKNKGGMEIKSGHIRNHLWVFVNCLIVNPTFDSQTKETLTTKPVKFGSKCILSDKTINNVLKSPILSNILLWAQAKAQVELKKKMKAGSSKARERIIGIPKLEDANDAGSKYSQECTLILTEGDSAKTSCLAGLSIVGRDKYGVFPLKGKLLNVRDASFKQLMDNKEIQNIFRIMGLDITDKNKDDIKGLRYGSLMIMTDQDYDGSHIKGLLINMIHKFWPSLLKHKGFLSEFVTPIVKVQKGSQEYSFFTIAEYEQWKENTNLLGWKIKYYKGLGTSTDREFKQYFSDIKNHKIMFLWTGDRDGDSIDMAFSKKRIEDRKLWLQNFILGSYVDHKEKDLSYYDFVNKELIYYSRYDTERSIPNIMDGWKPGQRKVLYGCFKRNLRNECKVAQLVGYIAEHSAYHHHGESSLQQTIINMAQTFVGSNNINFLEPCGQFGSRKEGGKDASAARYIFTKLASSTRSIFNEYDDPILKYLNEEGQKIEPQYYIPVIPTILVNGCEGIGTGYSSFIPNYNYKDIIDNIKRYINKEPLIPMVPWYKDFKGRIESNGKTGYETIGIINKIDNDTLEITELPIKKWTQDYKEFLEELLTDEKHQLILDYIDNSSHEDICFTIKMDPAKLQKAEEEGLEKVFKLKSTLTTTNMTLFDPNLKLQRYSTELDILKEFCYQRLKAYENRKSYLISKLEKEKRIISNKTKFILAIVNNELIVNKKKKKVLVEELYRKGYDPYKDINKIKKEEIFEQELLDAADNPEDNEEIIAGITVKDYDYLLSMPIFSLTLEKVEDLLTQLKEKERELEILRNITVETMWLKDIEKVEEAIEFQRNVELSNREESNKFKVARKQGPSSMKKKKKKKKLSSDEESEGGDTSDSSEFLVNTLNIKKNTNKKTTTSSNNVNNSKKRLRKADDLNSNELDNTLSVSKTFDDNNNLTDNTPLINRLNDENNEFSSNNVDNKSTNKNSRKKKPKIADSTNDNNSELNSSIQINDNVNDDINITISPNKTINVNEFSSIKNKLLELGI

DNA gyrase = DNA gyrase (Escherichia coli, UniProt P0AES4+P0AES6); experiment: Inhibition of Escherichia coli DNA gyrase ATPase activity incubated for 80 mins; type: protein-complex assay
[6] = Inhibition of Plasmodium falciparum DNA topoisomerase VI

Compound: C[n+]1c2cc(N)ccc2cc2ccc(N)cc21 [EUFLAVINE]
IC50 [1]: 1 µM

Compound: NC1CCN(c2c(F)cc3c(=O)c(C(=O)O)cn(C4CC4)c3c2Cl)C1 (configuration not stated) [CLINAFLOXACIN]
IC50 [3]: 3.2 µM

Compound: CO[C@@H]1[C@@H](OC(=O)c2ccc(C)[nH]2)[C@@H](O)[C@H](Oc2ccc3c(O)c(NC(=O)c4c[nH]c(C(=O)Nc5c(O)c6ccc(O[C@@H]7OC(C)(C)[C@H](OC)[C@@H](OC(=O)c8ccc(C)[nH]8)[C@H]7O)c(C)c6oc5=O)c4C)c(=O)oc3c2C)OC1(C)C
IC50 [4]: 40 µM

Compound: CO[C@@H]1[C@@H](OC(N)=O)[C@@H](O)[C@H](Oc2ccc3c(O)c(NC(=O)c4ccc(O)c(CC=C(C)C)c4)c(=O)oc3c2C)OC1(C)C [NOVOBIOCIN]
IC50 [5]: 30 µM

Compound: COc1ccc2nc3cc(Cl)ccc3c(Nc3cc(CN4CCCC4)c(O)c(CN4CCCC4)c3)c2n1 [PYRONARIDINE]
IC50 (DNA topoisomerase 2): 5.5 µM

Compound: COc1c(N2CCNC(C)C2)c(F)cc2c(=O)c(C(=O)O)cn(C3CC3)c12 (configuration not stated) [GATIFLOXACIN]
IC50 [3]: 12 µM

Compound: C[C@@H]1C[C@H]2O[C@@H]2/C=C\C=C\C(=O)Cc2c(Cl)c(O)cc(O)c2C(=O)O1 [RADICICOL]
IC50 [6]: 80 µM

Second part, the compound after the results:

IC50 [2]: 35 µM
Compound: O=C(O)c1cn(C2CC2)c2cc(N3CCNCC3)c(F)cc2c1=O [CIPROFLOXACIN]

IC50 [2]: 0.6 µM
Compound: COc1ccc2ncc(C#N)c(CCN3CCC(NCc4cc5c(cn4)OCS5)CC3)c2c1

IC50 [2]: 20 µM
Compound: COc1cc([C@@H]2c3cc4c(cc3[C@@H](O[C@@H]3O[C@@H]5CO[C@@H](C)O[C@H]5[C@H](O)[C@H]3O)[C@H]3COC(=O)[C@H]23)OCO4)cc(OC)c1O [ETOPOSIDE]

IC50 (DNA gyrase): 9.56 µM
Compound: O=c1c(O)cccc2cc(O)c(O)c(O)c12 [PURPUROGALLIN]

IC50 (DNA gyrase): 55.6 µM
Compound: O=C1c2ccccc2C(=O)c2c1cc(S(=O)(=O)O)c(O)c2O [Alizarin Red S]
